# From PubChem BioAssay (NCI)
#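 Assay format: 96-well plates, 48-hour exposure. GI50 = concentration required for 50% inhibition of growth. At the TGI there is no net growth.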
# Assays:
# Experiment in all cases: DTP human tumour cell line panel, 48 h
# 786-0 renal = test system: 786-0 renal
# MALME-3M melanoma = test system: MALME-3M melanoma
# SNB-19 CNS = test system: SNB-19 CNS
# SF-295 CNS = test system: SF-295 CNS
# BT-549 breast = test system: BT-549 breast
# NCI-H460 lung = test system: NCI-H460 lung
# MOLT-4 leukemia = test system: MOLT-4 leukemia
# RPMI-8226 leukemia = test system: RPMI-8226 leukemia
# NCI-H522 lung = test system: NCI-H522 lung
# DU-145 prostate = test system: DU-145 prostate
# OVCAR-4 ovarian = test system: OVCAR-4 ovarian
# EKVX NSCLC = test system: EKVX NSCLC
# U251 CNS = test system: U251 CNS
# HS 578T breast = test system: HS 578T breast
# SK-MEL-28 melanoma = test system: SK-MEL-28 melanoma
# OVCAR-5 ovarian = test system: OVCAR-5 ovarian
# SR leukemia = test system: SR leukemia
# K-562 leukemia = test system: K-562 leukemia
# CCRF-CEM leukemia = test system: CCRF-CEM leukemia
# NCI-H226 lung = test system: NCI-H226 lung
# SK-MEL-2 melanoma = test system: SK-MEL-2 melanoma
# SNB-75 CNS = test system: SNB-75 CNS
# CAKI-1 renal = test system: CAKI-1 renal
# OVCAR-8 ovarian = test system: OVCAR-8 ovarian
# HCC-2998 colon = test system: HCC-2998 colon
# KM12 colon = test system: KM12 colon
# SF-268 CNS = test system: SF-268 CNS
# NCI-H23 lung = test system: NCI-H23 lung
# T-47D breast = test system: T-47D breast
# UACC-257 melanoma = test system: UACC-257 melanoma
# ACHN renal = test system: ACHN renal
# COLO 205 colon = test system: COLO 205 colon
# SN12C renal = test system: SN12C renal
# IGROV1 ovarian = test system: IGROV1 ovarian
# MCF7 breast = test system: MCF7 breast
# UACC-62 melanoma = test system: UACC-62 melanoma
# MDA-MB-231 breast = test system: MDA-MB-231 breast
# OVCAR-3 ovarian = test system: OVCAR-3 ovarian
# LOX IMVI melanoma = test system: LOX IMVI melanoma
# A549 NSCLC = test system: A549 NSCLC
# SF-539 CNS = test system: SF-539 CNS
# RXF 393 renal = test system: RXF 393 renal
# SK-OV-3 ovarian = test system: SK-OV-3 ovarian
# UO-31 renal = test system: UO-31 renal
# M14 melanoma = test system: M14 melanoma
# NCI/ADR-RES ovarian = test system: NCI/ADR-RES ovarian
# SW-620 colon = test system: SW-620 colon
# TK-10 renal = test system: TK-10 renal
# MDA-MB-435 = test system: MDA-MB-435
# PC-3 prostate = test system: PC-3 prostate
# HL-60(TB) leukemia = test system: HL-60(TB) leukemia
# HOP-62 NSCLC = test system: HOP-62 NSCLC
# HCT-116 colon = test system: HCT-116 colon
# HOP-92 NSCLC = test system: HOP-92 NSCLC
# HCT-15 colon = test system: HCT-15 colon
# SK-MEL-5 melanoma = test system: SK-MEL-5 melanoma
smiles,measurement,setting,value
CN(C)c1cc[n+](/C(NS(=O)(=O)c2cc(C(=O)Nc3ccc(Cl)cc3)c(Cl)cc2[S-])=C(\C#N)C(=O)c2ccccc2)cc1,GI50,786-0 renal,> 100 µM
same,TGI,786-0 renal,> 100 µM
same,GI50,MALME-3M melanoma,31.7 µM
same,TGI,MALME-3M melanoma,> 100 µM
same,GI50,SNB-19 CNS,37.7 µM
same,TGI,SNB-19 CNS,> 100 µM
same,GI50,SF-295 CNS,27.1 µM
same,TGI,SF-295 CNS,68.7 µM
same,GI50,BT-549 breast,25.4 µM
same,TGI,BT-549 breast,82.8 µM
same,GI50,NCI-H460 lung,14.4 µM
same,TGI,NCI-H460 lung,49.4 µM
same,GI50,MOLT-4 leukemia,26.8 µM
same,TGI,MOLT-4 leukemia,> 100 µM
same,GI50,RPMI-8226 leukemia,40.9 µM
same,TGI,RPMI-8226 leukemia,> 100 µM
same,GI50,NCI-H522 lung,23.7 µM
same,TGI,NCI-H522 lung,58.5 µM
same,GI50,DU-145 prostate,17.2 µM
same,TGI,DU-145 prostate,82.6 µM
same,GI50,OVCAR-4 ovarian,18 µM
same,TGI,OVCAR-4 ovarian,38.8 µM
same,GI50,EKVX NSCLC,29.3 µM
same,TGI,EKVX NSCLC,95.9 µM
same,GI50,U251 CNS,61 µM
same,TGI,U251 CNS,> 100 µM
same,GI50,HS 578T breast,26.1 µM
same,TGI,HS 578T breast,67 µM
same,GI50,SK-MEL-28 melanoma,30.8 µM
same,TGI,SK-MEL-28 melanoma,> 100 µM
same,GI50,OVCAR-5 ovarian,22.7 µM
same,TGI,OVCAR-5 ovarian,53 µM
same,GI50,SR leukemia,> 100 µM
same,TGI,SR leukemia,> 100 µM
same,GI50,K-562 leukemia,89.4 µM
same,TGI,K-562 leukemia,> 100 µM
same,GI50,CCRF-CEM leukemia,33.1 µM
same,TGI,CCRF-CEM leukemia,> 100 µM
same,GI50,NCI-H226 lung,21.6 µM
same,TGI,NCI-H226 lung,49.3 µM
same,GI50,SK-MEL-2 melanoma,85 µM
same,TGI,SK-MEL-2 melanoma,> 100 µM
same,GI50,SNB-75 CNS,31.1 µM
same,TGI,SNB-75 CNS,> 100 µM
same,GI50,CAKI-1 renal,18.7 µM
same,TGI,CAKI-1 renal,43 µM
same,GI50,OVCAR-8 ovarian,39.1 µM
same,TGI,OVCAR-8 ovarian,> 100 µM
same,GI50,HCC-2998 colon,20.3 µM
same,TGI,HCC-2998 colon,57.2 µM
same,GI50,KM12 colon,40.6 µM
same,TGI,KM12 colon,> 100 µM
same,GI50,SF-268 CNS,40.6 µM
same,TGI,SF-268 CNS,> 100 µM
same,GI50,NCI-H23 lung,41.2 µM
same,TGI,NCI-H23 lung,> 100 µM
same,GI50,T-47D breast,9.64 µM
same,TGI,T-47D breast,77.7 µM
same,GI50,UACC-257 melanoma,90.2 µM
same,TGI,UACC-257 melanoma,> 100 µM
same,GI50,ACHN renal,50 µM
same,TGI,ACHN renal,> 100 µM
same,GI50,COLO 205 colon,30 µM
same,TGI,COLO 205 colon,> 100 µM
same,GI50,SN12C renal,79.8 µM
same,TGI,SN12C renal,> 100 µM
same,GI50,IGROV1 ovarian,84.7 µM
same,TGI,IGROV1 ovarian,> 100 µM
same,GI50,MCF7 breast,25.1 µM
same,TGI,MCF7 breast,> 100 µM
same,GI50,UACC-62 melanoma,29.3 µM
same,TGI,UACC-62 melanoma,98.6 µM
same,GI50,MDA-MB-231 breast,16.7 µM
same,TGI,MDA-MB-231 breast,48.5 µM
same,GI50,OVCAR-3 ovarian,26.6 µM
same,TGI,OVCAR-3 ovarian,98.6 µM
same,GI50,LOX IMVI melanoma,49.7 µM
same,TGI,LOX IMVI melanoma,> 100 µM
same,GI50,A549 NSCLC,41.5 µM
same,TGI,A549 NSCLC,> 100 µM
same,GI50,SF-539 CNS,11.9 µM
same,TGI,SF-539 CNS,24.8 µM
same,GI50,RXF 393 renal,55.4 µM
same,TGI,RXF 393 renal,> 100 µM
same,GI50,SK-OV-3 ovarian,36.5 µM
same,TGI,SK-OV-3 ovarian,99.3 µM
same,GI50,UO-31 renal,23.8 µM
same,TGI,UO-31 renal,54.7 µM
same,GI50,M14 melanoma,35.6 µM
same,TGI,M14 melanoma,> 100 µM
same,GI50,NCI/ADR-RES ovarian,> 100 µM
same,TGI,NCI/ADR-RES ovarian,> 100 µM
same,GI50,SW-620 colon,32 µM
same,TGI,SW-620 colon,> 100 µM
same,GI50,TK-10 renal,29.1 µM
same,TGI,TK-10 renal,> 100 µM
same,GI50,MDA-MB-435,36.5 µM
same,TGI,MDA-MB-435,> 100 µM
same,GI50,PC-3 prostate,24.9 µM
same,TGI,PC-3 prostate,75.5 µM
same,GI50,HL-60(TB) leukemia,> 100 µM
same,TGI,HL-60(TB) leukemia,> 100 µM
same,GI50,HOP-62 NSCLC,69.5 µM
same,TGI,HOP-62 NSCLC,> 100 µM
same,GI50,HCT-116 colon,14.9 µM
same,TGI,HCT-116 colon,34.3 µM
same,GI50,HOP-92 NSCLC,13.9 µM
same,TGI,HOP-92 NSCLC,36.3 µM
same,GI50,HCT-15 colon,17.4 µM
same,TGI,HCT-15 colon,65.1 µM
same,GI50,SK-MEL-5 melanoma,21.3 µM
same,TGI,SK-MEL-5 melanoma,81.8 µM
